The target in assay [1] is T1, Serine/threonine-protein kinase ICK (Homo sapiens) (UniProt Q9UPZ9).
T1 sequence (whole entry): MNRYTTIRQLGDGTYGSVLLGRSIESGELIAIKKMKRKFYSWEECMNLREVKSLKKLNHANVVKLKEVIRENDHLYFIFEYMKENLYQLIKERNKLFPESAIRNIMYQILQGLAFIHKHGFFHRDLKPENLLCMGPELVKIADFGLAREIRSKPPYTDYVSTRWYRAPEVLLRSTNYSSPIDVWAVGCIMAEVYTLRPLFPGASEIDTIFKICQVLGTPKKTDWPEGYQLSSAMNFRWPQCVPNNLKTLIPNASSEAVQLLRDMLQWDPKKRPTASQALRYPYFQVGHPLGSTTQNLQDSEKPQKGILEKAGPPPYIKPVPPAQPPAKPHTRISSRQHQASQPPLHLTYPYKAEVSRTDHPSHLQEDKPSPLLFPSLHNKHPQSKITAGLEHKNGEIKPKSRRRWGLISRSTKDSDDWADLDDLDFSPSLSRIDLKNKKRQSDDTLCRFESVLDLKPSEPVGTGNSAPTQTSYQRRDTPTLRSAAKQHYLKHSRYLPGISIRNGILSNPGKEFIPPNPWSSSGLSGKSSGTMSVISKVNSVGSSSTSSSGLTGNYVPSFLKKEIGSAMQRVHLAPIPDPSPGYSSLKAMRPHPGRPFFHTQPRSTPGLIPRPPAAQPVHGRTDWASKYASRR
Conditions: at 10 µM.

Assay [2] has as its target Tyrosine-protein kinase Lck (Homo sapiens, UniProt P06239). Kind of assay: Selectivity interaction (Panel of non-epigenetic targets (kinases, GPCRs, ion channels, and transporters, Eurofins) ) EUB0000271b LCK. Conditions: at 1 µM.
Assay [3] addresses T2, N-lysine methyltransferase KMT5A (Homo sapiens) (UniProt Q9NQR1).
T2 sequence (whole entry): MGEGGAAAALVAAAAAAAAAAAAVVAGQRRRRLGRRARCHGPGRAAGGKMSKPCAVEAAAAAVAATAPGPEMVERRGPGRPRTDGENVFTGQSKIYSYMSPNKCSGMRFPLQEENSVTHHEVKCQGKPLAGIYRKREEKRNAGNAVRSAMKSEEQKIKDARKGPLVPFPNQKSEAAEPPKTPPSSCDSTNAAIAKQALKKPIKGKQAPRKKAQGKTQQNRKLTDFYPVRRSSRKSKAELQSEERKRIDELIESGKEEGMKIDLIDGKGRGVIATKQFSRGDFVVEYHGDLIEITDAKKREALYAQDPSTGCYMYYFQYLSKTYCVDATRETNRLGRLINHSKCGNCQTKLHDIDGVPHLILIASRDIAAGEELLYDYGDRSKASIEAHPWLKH
Conditions: at 1 µM.

Assay [4] has as its target Protein arginine N-methyltransferase 6 (Homo sapiens, UniProt Q96LA8). Conditions: at 1 µM.
Assay [5] deals with Calcium/calmodulin-dependent protein kinase type II subunit alpha (Homo sapiens, UniProt Q9UQM7). Description: Selectivity interaction (SelectScreen profiling (Invitrogen)) EUB0000607a CAMK2A. Conditions: at 2 µM.
Calcium/calmodulin-dependent protein kinase type II subunit alpha, sequence (Q9UQM7 whole entry): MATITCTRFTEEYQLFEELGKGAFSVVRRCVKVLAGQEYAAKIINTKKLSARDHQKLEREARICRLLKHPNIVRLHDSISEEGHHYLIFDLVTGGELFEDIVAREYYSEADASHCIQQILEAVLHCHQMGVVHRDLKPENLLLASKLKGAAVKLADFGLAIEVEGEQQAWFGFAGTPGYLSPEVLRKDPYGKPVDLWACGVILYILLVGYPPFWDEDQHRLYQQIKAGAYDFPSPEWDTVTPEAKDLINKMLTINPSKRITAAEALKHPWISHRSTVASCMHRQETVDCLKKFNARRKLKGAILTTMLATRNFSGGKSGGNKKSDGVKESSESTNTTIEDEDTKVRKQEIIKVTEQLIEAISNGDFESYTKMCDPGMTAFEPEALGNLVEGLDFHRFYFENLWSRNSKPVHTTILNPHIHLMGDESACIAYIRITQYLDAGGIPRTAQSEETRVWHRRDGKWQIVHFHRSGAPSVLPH
Assay [6] concerns the target AMP-activated protein kinase (AMPK) alpha-1/beta-1/gamma-1 (Homo sapiens) (UniProt P54619+Q9Y478+Q13131). Description: (§1) Selectivity interaction (SelectScreen profiling (Invitrogen)) EUB0000607a PRKAA1. Type of assay: protein-complex assay. To be noted: at 2 µM.
Assay [7] has as its target AMPK alpha2/beta1/gamma1 (Homo sapiens) (UniProt P54646+P54619+Q9Y478). The description is as §1. To be noted: at 2 µM. It counts as protein-complex assay.
Assay [8] concerns the target Cyclin-dependent kinase 17 (Homo sapiens) (UniProt Q00537). Kind of assay: Selectivity interaction (ActivX KiNativ screen (kinase selectivity in THP-1 cell lysates)) EUB0000639a CDK17. Type of assay: subcellular. Conditions: lysate, at 5 µM.
For assay [9], the target named is Mast/stem cell growth factor receptor Kit (Homo sapiens, UniProt P10721). Description: Selectivity interaction (Kinase panel (Invitrogen)) EUB0000639a KIT. To be noted: at 200 nM.
Mast/stem cell growth factor receptor Kit, sequence (P10721 whole entry): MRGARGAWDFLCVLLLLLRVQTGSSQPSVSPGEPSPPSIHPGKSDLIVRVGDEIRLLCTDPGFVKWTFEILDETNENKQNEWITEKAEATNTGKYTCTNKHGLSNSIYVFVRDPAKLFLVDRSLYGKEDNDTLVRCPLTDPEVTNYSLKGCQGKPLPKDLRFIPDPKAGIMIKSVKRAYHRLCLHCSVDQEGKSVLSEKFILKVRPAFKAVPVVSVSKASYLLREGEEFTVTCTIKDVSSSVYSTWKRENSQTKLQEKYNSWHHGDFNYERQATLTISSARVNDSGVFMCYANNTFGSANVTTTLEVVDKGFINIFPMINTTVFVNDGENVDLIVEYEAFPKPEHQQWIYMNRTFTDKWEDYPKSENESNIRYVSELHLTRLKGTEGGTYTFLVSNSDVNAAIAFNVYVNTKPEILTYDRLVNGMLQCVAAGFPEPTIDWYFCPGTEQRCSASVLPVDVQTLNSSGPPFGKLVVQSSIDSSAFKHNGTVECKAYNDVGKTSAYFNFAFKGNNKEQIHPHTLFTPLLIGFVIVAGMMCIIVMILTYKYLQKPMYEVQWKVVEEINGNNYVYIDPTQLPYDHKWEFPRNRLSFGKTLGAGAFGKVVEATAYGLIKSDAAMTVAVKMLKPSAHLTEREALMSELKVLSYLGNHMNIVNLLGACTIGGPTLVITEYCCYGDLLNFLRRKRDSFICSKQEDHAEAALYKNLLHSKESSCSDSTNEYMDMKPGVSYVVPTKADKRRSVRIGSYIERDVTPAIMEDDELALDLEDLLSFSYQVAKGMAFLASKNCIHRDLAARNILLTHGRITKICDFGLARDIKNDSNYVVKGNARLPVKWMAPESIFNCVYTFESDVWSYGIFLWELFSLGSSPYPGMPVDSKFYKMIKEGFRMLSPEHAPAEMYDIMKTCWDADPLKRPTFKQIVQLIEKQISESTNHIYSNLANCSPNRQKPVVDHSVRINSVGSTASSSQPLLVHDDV
Assay [10] deals with Misshapen-like kinase 1 (Homo sapiens, UniProt Q8N4C8). Kind of assay: Selectivity interaction (ActivX KiNativ screen (kinase selectivity in THP-1 cell lysates)) EUB0000639a MINK1. Type of assay: subcellular. Conditions: lysate.
Misshapen-like kinase 1, sequence (Q8N4C8 whole entry, looked up): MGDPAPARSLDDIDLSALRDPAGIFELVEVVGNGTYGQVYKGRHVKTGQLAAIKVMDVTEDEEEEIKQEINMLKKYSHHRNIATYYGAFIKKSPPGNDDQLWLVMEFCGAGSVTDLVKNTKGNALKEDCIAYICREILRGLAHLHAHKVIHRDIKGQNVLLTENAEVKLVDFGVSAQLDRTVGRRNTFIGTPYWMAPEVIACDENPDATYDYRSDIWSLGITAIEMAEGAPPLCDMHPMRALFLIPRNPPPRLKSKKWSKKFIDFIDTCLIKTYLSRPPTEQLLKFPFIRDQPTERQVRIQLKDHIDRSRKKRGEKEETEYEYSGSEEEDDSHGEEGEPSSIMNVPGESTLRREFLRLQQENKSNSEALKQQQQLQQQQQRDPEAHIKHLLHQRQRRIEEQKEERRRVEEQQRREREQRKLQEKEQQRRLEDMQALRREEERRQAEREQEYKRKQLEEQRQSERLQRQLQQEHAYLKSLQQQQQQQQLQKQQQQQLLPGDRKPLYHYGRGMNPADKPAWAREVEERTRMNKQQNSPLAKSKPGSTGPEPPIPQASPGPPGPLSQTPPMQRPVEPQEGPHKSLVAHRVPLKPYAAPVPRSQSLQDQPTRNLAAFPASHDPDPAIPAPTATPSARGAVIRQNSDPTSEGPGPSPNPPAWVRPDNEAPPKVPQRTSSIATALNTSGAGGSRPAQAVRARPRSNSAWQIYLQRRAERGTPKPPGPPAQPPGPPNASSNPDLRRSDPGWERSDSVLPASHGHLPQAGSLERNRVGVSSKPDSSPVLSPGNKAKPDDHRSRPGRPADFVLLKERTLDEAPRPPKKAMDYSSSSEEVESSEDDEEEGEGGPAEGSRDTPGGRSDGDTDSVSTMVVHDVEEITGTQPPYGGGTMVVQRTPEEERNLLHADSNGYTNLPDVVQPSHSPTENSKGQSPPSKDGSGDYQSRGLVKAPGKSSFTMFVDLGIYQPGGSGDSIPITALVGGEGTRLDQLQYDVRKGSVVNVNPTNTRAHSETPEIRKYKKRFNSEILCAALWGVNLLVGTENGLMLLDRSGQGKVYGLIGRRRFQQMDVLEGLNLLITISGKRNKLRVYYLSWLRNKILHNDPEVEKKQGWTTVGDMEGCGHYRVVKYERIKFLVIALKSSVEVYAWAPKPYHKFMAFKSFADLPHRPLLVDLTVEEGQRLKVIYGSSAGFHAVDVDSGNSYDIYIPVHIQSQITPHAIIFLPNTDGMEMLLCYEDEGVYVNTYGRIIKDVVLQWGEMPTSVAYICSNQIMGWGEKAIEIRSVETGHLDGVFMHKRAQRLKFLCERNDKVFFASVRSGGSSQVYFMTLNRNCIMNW
The target of assay [11] is T3, Aurora kinase A (Homo sapiens) (UniProt O14965).
T3 sequence (whole entry): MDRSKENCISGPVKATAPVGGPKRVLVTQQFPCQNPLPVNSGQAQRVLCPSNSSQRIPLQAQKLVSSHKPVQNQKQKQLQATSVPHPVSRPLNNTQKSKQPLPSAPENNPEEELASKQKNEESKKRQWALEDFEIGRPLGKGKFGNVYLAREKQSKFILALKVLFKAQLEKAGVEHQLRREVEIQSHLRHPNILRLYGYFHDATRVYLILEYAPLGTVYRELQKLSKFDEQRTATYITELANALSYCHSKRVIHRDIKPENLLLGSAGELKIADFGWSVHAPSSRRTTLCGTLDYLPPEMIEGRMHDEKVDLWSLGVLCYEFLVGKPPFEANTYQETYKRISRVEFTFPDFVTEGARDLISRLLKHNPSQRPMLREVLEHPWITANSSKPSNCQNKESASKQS
Kind of assay: Selectivity interaction (ActivX KiNativ screen (kinase selectivity in THP-1 cell lysates)) EUB0000639a STK6. It counts as subcellular. Conditions: lysate, at 0.2 µM.

Protein arginine N-methyltransferase 6, sequence (Q96LA8 whole entry, looked up): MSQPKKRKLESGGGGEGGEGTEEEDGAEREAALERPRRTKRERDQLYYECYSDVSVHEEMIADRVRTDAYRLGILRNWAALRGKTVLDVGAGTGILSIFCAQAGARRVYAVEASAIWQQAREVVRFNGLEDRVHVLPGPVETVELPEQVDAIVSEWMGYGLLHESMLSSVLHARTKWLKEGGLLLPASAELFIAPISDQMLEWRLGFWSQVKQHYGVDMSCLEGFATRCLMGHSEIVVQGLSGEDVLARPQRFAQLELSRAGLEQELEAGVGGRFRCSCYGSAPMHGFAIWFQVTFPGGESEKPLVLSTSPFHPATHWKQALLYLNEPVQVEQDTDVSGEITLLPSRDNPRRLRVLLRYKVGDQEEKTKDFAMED
Cyclin-dependent kinase 17 (Homo sapiens), sequence (Q00537 whole entry, looked up): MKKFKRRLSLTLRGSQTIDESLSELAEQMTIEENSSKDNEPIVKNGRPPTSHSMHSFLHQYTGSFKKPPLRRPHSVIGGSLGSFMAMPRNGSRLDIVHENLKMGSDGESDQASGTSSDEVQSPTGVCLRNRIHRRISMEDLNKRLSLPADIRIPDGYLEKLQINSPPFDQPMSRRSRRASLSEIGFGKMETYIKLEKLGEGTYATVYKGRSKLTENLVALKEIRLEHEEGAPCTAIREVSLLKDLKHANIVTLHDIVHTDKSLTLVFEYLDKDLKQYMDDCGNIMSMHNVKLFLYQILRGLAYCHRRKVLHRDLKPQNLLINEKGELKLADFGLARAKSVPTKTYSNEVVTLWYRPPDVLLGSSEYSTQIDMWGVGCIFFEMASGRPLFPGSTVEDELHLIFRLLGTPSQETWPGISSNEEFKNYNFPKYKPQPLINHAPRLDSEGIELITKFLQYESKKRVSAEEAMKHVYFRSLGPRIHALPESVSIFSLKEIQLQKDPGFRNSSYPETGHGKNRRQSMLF
Tyrosine-protein kinase Lck, sequence (P06239 2-509 limits assumed): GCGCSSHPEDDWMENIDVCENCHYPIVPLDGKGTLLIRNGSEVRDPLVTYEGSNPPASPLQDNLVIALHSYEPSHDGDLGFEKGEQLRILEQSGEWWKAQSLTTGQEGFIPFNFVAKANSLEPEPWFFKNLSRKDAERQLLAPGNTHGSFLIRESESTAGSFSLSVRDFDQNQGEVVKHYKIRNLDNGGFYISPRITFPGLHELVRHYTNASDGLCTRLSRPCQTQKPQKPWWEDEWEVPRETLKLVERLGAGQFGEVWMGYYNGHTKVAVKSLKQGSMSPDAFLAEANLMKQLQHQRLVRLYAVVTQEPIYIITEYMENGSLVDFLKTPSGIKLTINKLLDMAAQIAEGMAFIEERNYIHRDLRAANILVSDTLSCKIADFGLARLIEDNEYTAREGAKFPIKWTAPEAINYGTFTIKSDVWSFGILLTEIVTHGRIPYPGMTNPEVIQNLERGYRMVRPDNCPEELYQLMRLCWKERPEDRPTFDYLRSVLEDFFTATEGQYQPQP

Consider `Cc1cc([C@@H](C)Nc2ccccc2C(=O)O)c2nc(N3CCOCC3)cc(=O)n2c1` [AZD-6482], for which the % of control in assay [1] was 100%.

For `Cc1cc(C)cc([C@@H]2c3cc(C)ccc3NC(=O)CN2C(=O)c2ccc(Br)s2)c1`, the % of inhibition in assay [2] came out at 1%.

As for `CNCCN1CCC(c2cc(CN(C)C(=O)c3cccc(Oc4ccccc4)c3)ccn2)CC1`, the % activity in assay [3] and in [4] was over 90% in each case.

On to `CNC(=O)Nc1ccc(-c2nc(N3CC4CCC(C3)O4)c3cnn(C4CCC5(CC4)OCCO5)c3n2)cc1`, for which the figures for the % of inhibition in [5], in assay [6] and in [7] were 0%, 5% and 7%, respectively.

Consider `CC[C@@H]1[C@H](F)C(=O)N[C@@H]1COc1nccc2cc(C(N)=O)c(OC)cc12` [ZIMLOVISERTIB], for which the % of inhibition is 6.5% in [8]; 1.04% in assay [9]; -5.5% in assay [10] (at 0.01 µM); -1.7% in [10] (at 0.04 µM); -13.9% in assay [10] (at 0.2 µM); -2.7% in [10] (at 1 µM). Further, the % of inhibition was found to be 3.1% in [10] (at 5 µM) and 20.9% in [11].

For the origin of these results see ChEMBL document CHEMBL5465560, “Selectivity Literature for EUbOPEN Chemogenomic Library” (2024).
